What is called Kd is the equilibrium constant for the complex coming apart. Read a high Kd as weaker binding.

The results in this text go back to publication PMC3326534 (Biochemistry, 2007).

Holding throughout (assay type): binding
Experiment [1] deals with PrnB (Pseudomonas fluorescens, UniProt P95481, C21S/C60S/C175S). Put plainly: crystal structure.
The target in experiment [2] is T1, PrnB (Pseudomonas fluorescens, UniProt P95481, C175S/C21S/C60S). Put plainly: spectrophotometric ligand titration.
Experiment [3] addresses T1, PrnB. Nature of the experiment: spectrophotometric ligand titration. This is another data set of the same source.
Experiment [4] concerns the target T1, PrnB. Put plainly: spectrophotometric ligand titration. The source holds these as a separate data set.

Structures are written as SMILES. Like-named read-outs stand apart in the source and are kept apart here.

T1 sequence (P95481 whole entry C175S/C21S/C60S): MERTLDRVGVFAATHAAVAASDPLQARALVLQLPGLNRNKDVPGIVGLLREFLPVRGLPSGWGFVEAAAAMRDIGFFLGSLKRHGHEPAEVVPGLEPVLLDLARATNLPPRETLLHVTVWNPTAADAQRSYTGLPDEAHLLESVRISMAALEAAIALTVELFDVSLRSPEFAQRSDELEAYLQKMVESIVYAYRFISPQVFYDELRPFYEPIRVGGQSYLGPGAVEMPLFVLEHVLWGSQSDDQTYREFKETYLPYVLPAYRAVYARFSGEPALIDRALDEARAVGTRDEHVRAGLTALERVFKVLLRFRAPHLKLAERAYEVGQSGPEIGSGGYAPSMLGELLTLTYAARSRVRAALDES
Chain of PrnB (Pseudomonas fluorescens, UniProt P95481, C21S/C60S/C175S) (P95481 whole entry C21S/C60S/C175S): as the sequence (P95481 whole entry C175S/C21S/C60S) above

With `NC(Cc1c[nH]c2c(Cl)cccc12)C(=O)O` (racemic) [7-Cl-D-tryptophan], the “crystal structure (2.0 Å)” value at PrnB [1] is given as “In the 7-Cl-D-tryptophan complex, one of the oxygen atoms of the carboxyl group is bound to the iron”.
Consider `N[C@@H](Cc1c[nH]c2c(Cl)cccc12)C(=O)O` [7-Cl-L-tryptophan], for which the affinity on PrnB [2], expressed as Kd, was 4.9 µM.
For `N[C@H](Cc1c[nH]c2ccccc12)C(=O)O` [D-tryptophan], the Kd on PrnB [3] turned out to be 39 µM.
For `N[C@@H](Cc1c[nH]c2ccccc12)C(=O)O` [L-tryptophan], at PrnB [4], the Kd was 60 µM.
